Measured values published in article PMC5244594 (Biotechnology for Biofuels, 2017).

Molecular target: T1, GLT-1 (Neurospora crassa, UniProt Q1K4S3)
T1 construct: gene NCU01633
Experiment: radiolabeled glucose uptake in S. cerevisiae EBY.VW4000
Type: cell-based
Conditions: labelled compound; transport into whole yeast cells expressing the eGFP fusion

T1 sequence (Q1K4S3 entry or part of it): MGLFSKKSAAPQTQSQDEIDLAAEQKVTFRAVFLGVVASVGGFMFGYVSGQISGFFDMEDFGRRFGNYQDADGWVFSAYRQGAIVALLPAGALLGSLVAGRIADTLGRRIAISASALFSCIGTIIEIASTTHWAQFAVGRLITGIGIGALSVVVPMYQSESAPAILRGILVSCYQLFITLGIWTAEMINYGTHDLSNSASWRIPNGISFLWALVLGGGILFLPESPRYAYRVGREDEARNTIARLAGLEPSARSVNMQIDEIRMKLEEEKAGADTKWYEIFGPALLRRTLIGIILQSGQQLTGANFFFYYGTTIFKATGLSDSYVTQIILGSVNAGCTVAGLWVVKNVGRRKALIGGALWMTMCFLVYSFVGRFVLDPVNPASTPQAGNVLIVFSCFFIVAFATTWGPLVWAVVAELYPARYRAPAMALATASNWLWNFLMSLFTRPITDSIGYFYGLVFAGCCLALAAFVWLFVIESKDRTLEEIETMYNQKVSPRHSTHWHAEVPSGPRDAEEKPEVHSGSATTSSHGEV

In the case of `OC[C@H]1OC(O)[C@H](O)[C@@H](O)[C@@H]1O` (stereo partly shown) [glucose], the Km is reported as 18.4 ± 3.38 mM.
